Experimental data as given in patent US6403343B2, “Method of producing a taxane-type diterpene and a method of obtaining cultured cells which produce the taxane-type dilterpene at a high rate” (Mitsui Chemicals, Inc., priority 1993, dated 2002).

System: cultured cells of Taxus baccata LINN
Test: Growth rate and taxane yield, 21-day shake culture of Taxus baccata cells with heavy metal compound, amine, antiethylene agent or Ethrel added
Format: cell-based
Experimental: (§1) One gram (fresh weight) of the callus was inoculated to an Erlenmeyer flask containing 20 ml of liquid Woody Plant Medium to which the above-mentioned component was added to give the same concentration and shake culture was carried out with a rotary shaker (amplification of 25 mm, 100 rpm) and the callus was subcultured in every 21 days to accelerate the growth rate thereof.
Then shake culture was carried out at 25° C. for 21 days.
(§2) After completing the culture, cultured cells of Taxus baccata LINN were harvested by filtration and lyophilized, then the dry weight was measured to obtain the growth rate thereof. Taxane-type diterpenes were extracted from the dried callus with methanol and the like, and they were determined by comparing with standard taxol, cephalomannine, and baccatin III using high performance liquid chromatography to measure the yields of the taxane-type diterpenes.
as §1
One gram (fresh weight) of the cultured cells thus obtained was inoculated to an Erlenmeyer flask containing 20 ml of liquid Woody Plant Medium to which the above-mentioned component had been added to give the same concentration, then spermidine was added to it as amine to give the final concentration of 10^−9M-1M. Then shake culture was carried out at 25° C. for 21 days.
as §2, with “cells” for “callus”, “diterpene.” for “diterpenes.”
as §1, with “component had been” for “component was”
One gram (fresh weight) of the cultured cells thus obtained was inoculated to an Erlenmeyer flask containing 20 ml of liquid Woody Plant Medium to which the above-mentioned component had been added to give the same concentration, and shake culture was carried out at 25° C. for 14 days.

[1] = 10^−1 M added at start, 21 days
[2] = 10^−2 M added at start, 21 days
[3] = 10^−3 M added at start, 21 days
[4] = 10^−4 M added at start, 21 days
[5] = 10^−5 M added at start, 21 days
[6] = 10^−6 M added at start, 21 days
[7] = 10^−7 M added at start, 21 days
[8] = 10^−8 M added at start, 21 days
[9] = 10^−9 M added at start, 21 days
[10] = Ethrel 10^−3 M added at the 14th day, no acetylsalicylic acid, oxygen 20%
[11] = Ethrel 10^−3 M added at the 14th day, no acetylsalicylic acid, oxygen 20%, cell + medium
[12] = 2×10^−6 M added 5 times at 4 days' intervals from day 0, total 10^−5 M
[13] = 10^−5 M added on 7th day, 14 more days
[14] = 10^−5 M added on 14th day, 7 more days
[15] = 10^−5 M added on 18th day, 3 more days
[16] = 10^−5 M at start + methyl jasmonate 10^−4 M on 14th day
[17] = 10^−5 M at start + methyl jasmonate 10^−4 M on 14th day, oxygen 10% in the gas phase
[18] = 10^−5 M at start, oxygen 10% in the gas phase

## NCCCCN [putrescine]
1 M added at start, 21 days
  growth rate: 1.0 times
  total yield of taxane: 0.36 mg/L
  yield of baccatin III: 0.01 mg/L
  yield of cephalomannine: 0.22 mg/L
  yield of taxol: 0.13 mg/L
[1]
  growth rate: 1.1 times
  total yield of taxane: 2.74 mg/L
  yield of baccatin III: 0.80 mg/L
  yield of cephalomannine: 0.97 mg/L
  yield of taxol: 0.97 mg/L
[2]
  growth rate: 1.8 times
  total yield of taxane: 3.18 mg/L
  yield of baccatin III: 1.13 mg/L
  yield of cephalomannine: 0.99 mg/L
  yield of taxol: 1.06 mg/L
[3]
  growth rate: 2.2 times
  total yield of taxane: 6.90 mg/L
  yield of baccatin III: 1.95 mg/L
  yield of cephalomannine: 1.88 mg/L
  yield of taxol: 3.07 mg/L
[4]
  growth rate: 2.6 times
  total yield of taxane: 22.65 mg/L
  yield of baccatin III: 6.60 mg/L
  yield of cephalomannine: 5.25 mg/L
  yield of taxol: 10.80 mg/L
[5]
  growth rate: 3.1 times
  total yield of taxane: 23.79 mg/L
  yield of baccatin III: 6.98 mg/L
  yield of cephalomannine: 5.37 mg/L
  yield of taxol: 11.44 mg/L
[6]
  growth rate: 3.0 times
  total yield of taxane: 19.44 mg/L
  yield of baccatin III: 5.74 mg/L
  yield of cephalomannine: 5.51 mg/L
  yield of taxol: 8.19 mg/L
[7]
  growth rate: 2.7 times
  total yield of taxane: 6.88 mg/L
  yield of baccatin III: 1.10 mg/L
  yield of cephalomannine: 2.31 mg/L
  yield of taxol: 3.47 mg/L
[8]
  growth rate: 2.8 times
  total yield of taxane: 2.94 mg/L
  yield of baccatin III: 0.40 mg/L
  yield of cephalomannine: 1.02 mg/L
  yield of taxol: 1.52 mg/L
[9]
  growth rate: 2.8 times
  total yield of taxane: 1.75 mg/L
  yield of baccatin III: 0.36 mg/L
  yield of cephalomannine: 0.70 mg/L
  yield of taxol: 0.69 mg/L

## NCCCNCCCCNCCCN [spermin]
1 M added at start, 21 days
  growth rate: 1.0 times
  total yield of taxane: 0.22 mg/L
  yield of baccatin III: 0.10 mg/L
  yield of cephalomannine: 0.04 mg/L
  yield of taxol: 0.08 mg/L
[1]
  growth rate: 1.4 times
  total yield of taxane: 1.29 mg/L
  yield of baccatin III: 0.39 mg/L
  yield of cephalomannine: 0.32 mg/L
  yield of taxol: 0.58 mg/L
[2]
  growth rate: 2.1 times
  total yield of taxane: 3.30 mg/L
  yield of baccatin III: 0.70 mg/L
  yield of cephalomannine: 1.54 mg/L
  yield of taxol: 1.06 mg/L
[3]
  growth rate: 2.0 times
  total yield of taxane: 8.22 mg/L
  yield of baccatin III: 0.76 mg/L
  yield of cephalomannine: 2.68 mg/L
  yield of taxol: 4.78 mg/L
[4]
  growth rate: 2.3 times
  total yield of taxane: 11.96 mg/L
  yield of baccatin III: 1.64 mg/L
  yield of cephalomannine: 4.09 mg/L
  yield of taxol: 6.23 mg/L
[5]
  growth rate: 2.1 times
  total yield of taxane: 17.18 mg/L
  yield of baccatin III: 2.09 mg/L
  yield of cephalomannine: 5.63 mg/L
  yield of taxol: 9.46 mg/L
[6]
  growth rate: 2.4 times
  total yield of taxane: 6.89 mg/L
  yield of baccatin III: 0.89 mg/L
  yield of cephalomannine: 1.97 mg/L
  yield of taxol: 4.03 mg/L
[7]
  growth rate: 2.4 times
  total yield of taxane: 4.17 mg/L
  yield of baccatin III: 0.68 mg/L
  yield of cephalomannine: 1.32 mg/L
  yield of taxol: 2.17 mg/L
[8]
  growth rate: 2.3 times
  total yield of taxane: 3.42 mg/L
  yield of baccatin III: 0.62 mg/L
  yield of cephalomannine: 1.01 mg/L
  yield of taxol: 1.79 mg/L
[9]
  growth rate: 2.9 times
  total yield of taxane: 1.86 mg/L
  yield of baccatin III: 0.50 mg/L
  yield of cephalomannine: 0.64 mg/L
  yield of taxol: 0.72 mg/L

## O=P(O)(O)CCCl [Reference Example 2]
[10]
  growth rate: 2.7 times
  total yield of taxane: 0.30 mg/L
[11]
  yield of baccatin III: 0.05 mg/L
  yield of cephalomannine: 0.16 mg/L
  yield of taxol: 0.09 mg/L

## [Cl][Co][Cl] [cobalt chloride]
1 M added at start, 21 days
  growth rate: 0.6 times
  total yield of taxane: 0 mg/L
  yield of baccatin III: 0 mg/L
  yield of cephalomannine: 0 mg/L
  yield of taxol: 0 mg/L
[12]
  growth rate: 2.6 times
  total yield of taxane: 27.66 mg/L
  yield of baccatin III: 5.32 mg/L
  yield of cephalomannine: 6.58 mg/L
  yield of taxol: 15.76 mg/L
[1]
  growth rate: 0.8 times
  total yield of taxane: 1.08 mg/L
  yield of baccatin III: 0.11 mg/L
  yield of cephalomannine: 0.42 mg/L
  yield of taxol: 0.55 mg/L
[2]
  growth rate: 1.4 times
  total yield of taxane: 2.14 mg/L
  yield of baccatin III: 0.44 mg/L
  yield of cephalomannine: 0.78 mg/L
  yield of taxol: 0.92 mg/L
[3]
  growth rate: 2.2 times
  total yield of taxane: 7.98 mg/L
  yield of baccatin III: 1.57 mg/L
  yield of cephalomannine: 2.03 mg/L
  yield of taxol: 4.38 mg/L
[4]
  growth rate: 2.7 times
  total yield of taxane: 10.02 mg/L
  yield of baccatin III: 1.64 mg/L
  yield of cephalomannine: 3.46 mg/L
  yield of taxol: 4.92 mg/L
[5]
  growth rate: 3.2 times
  total yield of taxane: 28.29 mg/L
  yield of baccatin III: 5.68 mg/L
  yield of cephalomannine: 6.50 mg/L
  yield of taxol: 16.11 mg/L
[13]
  growth rate: 3.2 times
  total yield of taxane: 20.56 mg/L
  yield of baccatin III: 4.36 mg/L
  yield of cephalomannine: 5.98 mg/L
  yield of taxol: 10.22 mg/L
[14]
  growth rate: 3.1 times
  total yield of taxane: 13.48 mg/L
  yield of baccatin III: 2.01 mg/L
  yield of cephalomannine: 4.37 mg/L
  yield of taxol: 7.10 mg/L
[15]
  growth rate: 2.9 times
  total yield of taxane: 3.60 mg/L
  yield of baccatin III: 1.17 mg/L
  yield of cephalomannine: 1.11 mg/L
  yield of taxol: 1.32 mg/L
[16]
  growth rate: 2.5 times
  total yield of taxane: 62.78 mg/L
  yield of baccatin III: 23.00 mg/L
  yield of cephalomannine: 9.46 mg/L
  yield of taxol: 30.32 mg/L
[17]
  growth rate: 2.4 times
  total yield of taxane: 74.83 mg/L
  yield of baccatin III: 25.85 mg/L
  yield of cephalomannine: 15.21 mg/L
  yield of taxol: 33.77 mg/L
[18]
  growth rate: 2.7 times
  total yield of taxane: 52.24 mg/L
  yield of baccatin III: 17.61 mg/L
  yield of cephalomannine: 7.99 mg/L
  yield of taxol: 26.64 mg/L
[6]
  growth rate: 2.4 times
  total yield of taxane: 16.36 mg/L
  yield of baccatin III: 2.25 mg/L
  yield of cephalomannine: 5.79 mg/L
  yield of taxol: 8.32 mg/L
[7]
  growth rate: 2.6 times
  total yield of taxane: 1.08 mg/L
  yield of baccatin III: 0.16 mg/L
  yield of cephalomannine: 0.63 mg/L
  yield of taxol: 0.29 mg/L
[8]
  growth rate: 2.6 times
  total yield of taxane: 1.05 mg/L
  yield of baccatin III: 0.15 mg/L
  yield of taxol: 0.29 mg/L
[9]
  growth rate: 2.5 times
  total yield of taxane: 0.98 mg/L
  yield of baccatin III: 0.15 mg/L
  yield of cephalomannine: 0.56 mg/L
  yield of taxol: 0.27 mg/L
